Several values for one entry are separate records, joined by “and”; a condition that tells them apart may be missing. Equal values may be shown once.

For this assay, the system named is SW 982 tumor spheroid viability. Briefly: Anticancer human tumor SW 982 cell line growth inhibition.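 For all read-outs here: spheroids exposed to compound for 7 days before readout.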 As to conditions: spheroids with HUVEC and MSC; for viability, T/C: stronger effect = lower value. The source says: Multicellular complex tumor spheroid response to DNA repair inhibitors in combination with DNA-damaging drugs
This study explores the anticancer activities of DNA-damaging drugs and inhibitors of DNA damage repair, both as single agents and in combinations. Complex tumor spheroids comprised of malignant cells, endothelial cells and mesenchymal stem cells served as an in vitro model for human solid tumors. This model system incorporates physiologically relevant features and patient-derived or established malignant cell lines with clinically relevant genetic alterations from many tumor types. Twenty-six patient-derived or established malignant cell lines were evaluated representing sarcoma, melanoma, small cell lung cancer (SCLC), non-small cell lung cancer (NSCLC), as well as bladder, ovarian and pancreatic cancers. The concentration ranges selected for each drug and investigational agent were based upon clinically achievable concentrations if the clinical Cmax of the agent was known.
Compounds. The drugs and compounds olaparib (NSC753686), talazoparib (NSC767125), berzosertib (NSC777718), elimusertib (NSC800525), nedisertib (NSC802822), VX-984 (NSC792969), AZD-1390 (NSC803789), temozolomide (NSC362856), topotecan (NSC609699), trabectedin (NSC813783), staurosporine (NSC755774), and gemcitabine (NSC613327) were obtained from the National Cancer Institute (NCI) Developmental Therapeutics Program Chemical Repository. The FDA-approved anticancer drug set is available from the Developmental Therapeutics Program at https://dtp.cancer.gov/organization/dscb/obtaining/available_plates.htm. […] The stock solutions were prepared in dimethyl sulfoxide (DMSO, Sigma-Aldrich, St. Louis, MO, cat. D2650) at 400-fold the tested concentration and stored at -70 degrees C. Prior to their use, the stock solutions were diluted in fresh medium and the final DMSO concentration in the assay was 0.25% (v/v). All drugs and investigational agents were tested over a range starting from a high concentration at or near the clinical Cmax and decreasing in half-log increments. If the clinical Cmax for an agent had not been determined, the highest concentration tested was 10 microM.
Cell Lines. The patient-derived cancer cell (PDC) lines: 156681-154-R-J1-PDC, 283228-195-R-J1-PDC, 287954-098-R-J1-PDC, 292921-168-R-J2-PDC, 349418-098-R-PDC, 425362-245-T-J1-PDC, 556581-035-R-J1-PDC, and BL0293-F563-PDC were received from the NCI Patient-Derived Models Repository (PDMR, https://pdmr.cancer.gov). The established cell lines HS-SY-2 (RRID:CVCL_8719), MPNST, and SYO-1 (RRID:CVCL_7146) were obtained from the Sloan Kettering Institute. The alveolar soft parts sarcoma cell line ASPS-1 (RRID:CVCL_S738) was established at the NCI and grown from internal seed stocks. The following established cell lines were purchased from the American Type Culture Collection (ATCC, Manassas, VA): G-401 (ATCC, cat. CRL-1441, RRID:CVCL_0270), SW982 (ATCC, cat. HTB-93, RRID:CVCL_1734), VA-ES-BJ (ATCC, cat. CRL-2138, RRID:CVCL_1785), NCI-H719 (ATCC, cat. CRL-5837, RRID:CVCL_1582), NCI-H196 (ATCC, cat. CRL-5823, RRID:CVCL_1509), NCI-H841 (ATCC, cat. CRL-5845, RRID:CVCL_1595), NCI-H1618 (ATCC, cat. CRL-5879, RRID:CVCL_1480), NCI-H1876 (ATCC, cat. CRL-5902, RRID:CVCL_1503), DMS 114 (ATCC, cat. CRL-2066; RRID:CVCL_1174), NCI-H211 (ATCC, cat. CRL-5824; RRID:CVCL_1529), and SW 1271 (ATCC, cat. CRL-2177, RRID:CVCL_1716). The small cell lung cancer cell line COR-L88 was purchased from Sigma-Aldrich (cat. 92031917-1VL, RRID:CVCL_1141). The non-small cell lung cancer cell lines NCI-H226 (RRID:CVCL_1544) and NCI-H322M (RRID:CVCL_1557) were established at the NCI and grown from internal seed stocks. Pooled donor human umbilical vein endothelial cells (HUVEC, Lonza, cat. CC-2519) and human mesenchymal stem cells (hMSC, Lonza, cat. PT-2501) were purchased from Lonza (Walkersville, MD).
Cell Culture. All cells were maintained in an incubator at 37 degrees C and 5% CO2 with 95% humidity. […]

Regarding `COc1cc(C)[nH]c(=O)c1CN1CCc2c(Cl)cc(C(OC)C3COC3)c(Cl)c2C1=O` (stereo unspecified) + CC[C@@]1(O)C(=O)OCc2c1cc1n(c2=O)Cc2cc3c(CN(C)C)c(O)ccc3nc2-1, the IC50 runs as follows: (curve of first compound, second compound 0.003 µM) greater than 10 µM; (curve of first compound, second compound 0.00949 µM) greater than 10 µM; (curve of first compound, second compound 0.03 µM) greater than 10 µM; (curve of first compound, second compound 0.0949 µM) greater than 10 µM; (curve of first compound, second compound 0.3 µM) less than 0.0316 µM. For the same compound, the viability, T/C is, setting by setting: (second compound 0.003 µM, first compound 0.0316 µM) 87.8%; (second compound 0.003 µM, first compound 0.1 µM) 81.4%; (second compound 0.003 µM, first compound 0.316 µM) 90.5%; (second compound 0.003 µM, first compound 1 µM) 89.8%; (second compound 0.003 µM, first compound 3.16 µM) 87.8%; (second compound 0.003 µM, first compound 10 µM) 90.4%. The viability, T/C (second compound 0.00949 µM, first compound 0.0316 µM) was 74.8%; the viability, T/C (second compound 0.00949 µM, first compound 0.1 µM) was 77.3%; the viability, T/C (second compound 0.00949 µM, first compound 0.316 µM) is 75.1%; the viability, T/C (second compound 0.00949 µM, first compound 1 µM) was 79.4%; the viability, T/C (second compound 0.00949 µM, first compound 3.16 µM) is 82.7%; the viability, T/C (second compound 0.00949 µM, first compound 10 µM) was 83%. The viability, T/C reads like this: (second compound 0.03 µM, first compound 0.0316 µM) 77.7%; (second compound 0.03 µM, first compound 0.1 µM) 66.8%; (second compound 0.03 µM, first compound 0.316 µM) 70.8%; (second compound 0.03 µM, first compound 1 µM) 75.8%; (second compound 0.03 µM, first compound 3.16 µM) 69%; (second compound 0.03 µM, first compound 10 µM) 72.5%. Further, the viability, T/C is, setting by setting: (second compound 0.0949 µM, first compound 0.0316 µM) 58.2%; (second compound 0.0949 µM, first compound 0.1 µM) 56%; (second compound 0.0949 µM, first compound 0.316 µM) 65%; (second compound 0.0949 µM, first compound 1 µM) 63%; (second compound 0.0949 µM, first compound 3.16 µM) 66%; (second compound 0.0949 µM, first compound 10 µM) 76.5%. Further, the viability, T/C was 49.4% (second compound 0.3 µM, first compound 0.0316 µM); 47.2% (second compound 0.3 µM, first compound 0.1 µM); 42.9% (second compound 0.3 µM, first compound 0.316 µM); 41.2% (second compound 0.3 µM, first compound 1 µM); 48.2% (second compound 0.3 µM, first compound 3.16 µM); 52.4% (second compound 0.3 µM, first compound 10 µM).

In the case of `O=C(c1cc(Cc2n[nH]c(=O)c3ccccc23)ccc1F)N1CCN(C(=O)C2CC2)CC1`, the viability, T/C by setting is: (compound 0.0949 µM) 99.7% and 104% and 98.4%; (compound 0.3 µM) 102% and 97.7% and 100%; (compound 0.949 µM) 96.9% and 88.7% and 98.6%; (compound 3 µM) 79.8% and 87.7% and 85.5%; (compound 9.49 µM) 63.3% and 54.4% and 49.8%; (compound 30 µM) 47.1% and 43.4% and 46.1%. Besides, the IC50 (curve of compound) was 24.7 µM and 15.8 µM and 9.44 µM.

For the compound `CC(C)n1c(=O)n(C)c2cnc3cc(F)c(-c4ccc(OCCCN5CCCCC5)nc4)cc3c21`, the viability, T/C was 99% and 107% and 96.4% (compound 0.0316 µM); 87.8% and 104% and 101% (compound 0.1 µM); 91.9% and 96% and 90.8% (compound 0.316 µM); 87% and 91.9% and 71.7% (compound 1 µM); 68.2% and 74.7% and 61.6% (compound 3.16 µM); 34.8% and 48.2% and 35.8% (compound 10 µM). In addition, the IC50 (curve of compound) is 5.95 µM and 9.44 µM and 4.93 µM.

As for `CNCc1ccc(-c2cc(-c3nc(-c4ccc(S(=O)(=O)C(C)C)cc4)cnc3N)on2)cc1`, the viability, T/C is 94.4% and 97.7% and 104% (compound 0.00949 µM); 94.6% and 94.9% and 100% (compound 0.03 µM); 78.7% and 84% and 84.3% (compound 0.0949 µM); 43.7% and 49.3% and 31.1% (compound 0.3 µM); 28% and 32.8% and 19.9% (compound 0.949 µM); 13.5% and 17.2% and 2.19% (compound 3 µM). Where the note is “curve of compound”, the IC50 is 0.263 µM and 0.341 µM and 0.205 µM.

These data come from PubChem BioAssay AID1845216 (Molecular Pharmacology Branch, DTP, NCI, 2023).
